Experimental data reported in patent US20150212068A1, “Cholyl-L-Lysyl-Fluorescein Assay” (Novassay SA, priority 2012, published 2015).
“Also recorded” adds a separate entry of the source.

Tests used:
[1] = Stability of CLF in human plasma at room temperature and 4° C. after 30 min pre-incubation in whole blood at 37° C. (Test 2), HPLC-MS/MS; format: in vitro ADME; conditions: for CLF concentration: plasma after 30 min blood pre-incubation at 37° C., mean ± SEM (n = 2); for percentage of compound remaining (by comparing with content at To), lowest over incubation / CLF remaining: plasma after blood pre-incubation; for percentage of compound remaining (by comparing with content at To), lowest over incubation: up to 24 h; for CLF remaining: vs To
Method: Eighty microliters (80 μl) of the working solution of CLF were added to 8 ml of human EDTA blood. The final concentration of CLF in blood was of 100 ng/ml. Then, sample was incubated at 37° C. in water bath for 30 min and plasma was prepared as described previously. Plasma was then divided into two equal fractions of 2 ml each. One fraction was incubated at room temperature and the second one was incubated at 4° C. in a cold room. Two aliquots of 200 μl were taken from both fractions just before incubation and after 30 min, 120 min and 24 h of incubation. Samples were stored at −70° C. until further analysis. […] Thus, a stock solution of IS at 100 μg/ml in acetonitrile was 50-fold diluted in acetonitrile in order to obtain a final concentration of 2 μg/ml. Then, 200 μl of this solution were added to each plasma sample in order to precipitate the proteins. Samples were vortexed/mixed and centrifuged 5 min at 20,000 g (4° C.). After centrifugation, the clear supernatant (around 250 μl) was transferred into 1.2 ml HPLC glass vials and sealed. Samples were placed into the refrigerated autosampler and 20 μl were injected into the HPLC-MS/MS system. Test samples were injected twice. […] The injected volume of sample was 20 μl and the “full loop” mode was applied. The temperature of the analytical column was kept at 30° C. CLF and its IS were separated on an Acclaim 120 C18 column (5 μm, 2.1×100 mm, Dionex) by elution with a linear gradient of acetonitrile in water as described in Table 6. An ion trap mass spectrometer equipped with an ESI interface was operated in the positive ionization mode. For each compound, the most abundant ion formed in MS was selected for MS/MS fragmentations. In order to increase the sensitivity and the specificity of the method, the MRM mode was selected. The most specific daughter ions formed in MS/MS were used for quantification.

[2] = Effect of light exposure on CLF-spiked serum, 48 hrs at room temperature, CLF ELISA; format: physicochemical, human; conditions: for % difference (light from dark) / observed Light / observed dark: serum pool; for % difference (light from dark) / observed dark: 48 hrs at RT; for observed Light: 48 hrs at RT near light source; for observed dark: covered with aluminium foil
Method: These conditions were used for all assays described in Phase 2a (above) and Phase 2b (below). See Appendix B and C for buffer and conjugate formulations respectively: • Add 25 μl/well of sample or standard (0-1000 ng/ml CLF in Buffer #24) to the wells of a streptavidin-coated microtitre plate (NovAssay, F2SAC). • Add 100 μl/well of fluorescein-biotin (Sigma B9431) at 20 ng/ml in Buffer #24+0.2% w/v ANS (Sigma 10417). • Add 100 μl/well of anti-fluorescein HRP (NovAssay, DV047/17-3) at 100 ng/ml in Buffer #24. • Incubate the plate for 30 minutes at room temperature. • Wash the plate 3 times with 800 μl/well Buffer #29 and tap the plate dry. • Add 100 μl/well of SureBlue Reserve TMB Substrate (KPL) and incubate the plate for 10 minutes at room temperature. • Stop the substrate reaction by adding 100 μl/well of 1M HCl and read the absorbance at 450 nm wavelength (ThermoFisher Scientific, Multiskan FC).
For the study of the effect of light, 3 pools of serum were spiked with CLF at 31.25, 125 and 500 ng/ml. One aliquot of each pool was put near a light source (fluorescent bulb 58 watts, at a distance of 85 cm). The “dark” sample was covered with aluminium foil. The samples were at RT (˜18-22° C.). Storage time was 48 hrs.

[3] = Quantification of CLF in 5 human plasma samples by HPLC-MS/MS with calibration curves from SS CLF-MetOH and SS CLF-EtOH; format: physicochemical
Method: Two working solutions of CLF were prepared. […] Five human plasma samples, spiked with CLF from both working solutions, were prepared for HPLC-MS/MS analysis. These samples (named S1, S2, S3, S4 and S5) were thawed at room temperature, extemporaneously, and 100 μl of each were transferred in appropriate tubes. The HPLC-MS/MS analysis was conducted with two calibration curves, constituted with 7 single points (non zero). The first one was prepared by serial dilutions in methanol of the working solution named SS CLF-MetOH. The second one was prepared by serial dilutions in methanol of the working solution named SS CLF-EtOH. Both working solutions were centrifuged 5 min at 3000 g before dilutions. These dilutions of CLF in methanol allowed obtaining the 10× standard solutions used for standard sample preparation. Then, calibration curves were prepared by adding 10 μl of the concentrated standard solutions to 90 μl of free-drug human plasma. The final concentrations of calibrators were of 1000, 500, 250, 100, 25, 5 and 1 ng/ml. […] The contents of CLF were determined in 5 human plasma samples provided, according to the standard curve generated from both separate working solutions. […] The content of CLF was semi-quantified using data previously obtained. The UV response at 254 nm was used for semi-quantification. […] The differences between both quantifications were also evaluated as follows: […]

[4] = room temperature (25 ± 2° C.), 0.0 hours
[5] = room temperature (25 ± 2° C.), 0.5 hours
[6] = room temperature (25 ± 2° C.), 2.0 hours
[7] = room temperature (25 ± 2° C.), 24.0 hours

CC(CCC(=O)NC(CCCCNC(=S)Nc1ccc(-c2c3ccc(=O)cc-3oc3cc(O)ccc23)c(C(=O)O)c1)C(=O)O)C1CCC2C3C(O)CC4CC(O)CCC4(C)C3CC(O)C12C [CLF, Cholyl-L-Lysyl-Fluorescein] showed a plasmatic concentrations measured ([1]; blood spiked with 100 ng/ml, plasma at 4° C. and room temperature, 0-24 h) of 147.7 to 164.9 ng/mL, a CLF concentration ([1]; 4° C., 0.0 hours) of 163.3 ± 3.6 ng/mL and a CLF concentration ([1]; 4° C., 0.5 hours) of 155.4 ± 7.0 ng/mL. It also gave a CLF concentration ([1]; 4° C., 2.0 hours) of 164.9 ± 4.2 ng/mL, a CLF concentration ([1]; 4° C., 24.0 hours) of 152.7 ± 4.2 ng/mL and a CLF concentration [1, 4] of 163.3 ± 3.6 ng/mL. The CLF concentration [1, 5] was 159.3 ± 0.6 ng/mL, the CLF concentration [1, 6] was 151.1 ± 0.8 ng/mL and the CLF concentration [1, 7] was 147.7 ± 3.7 ng/mL. The “percentage of compound remaining (by comparing with content at To), lowest over incubation” value ([1]; 4° C.) was no less than 93.5%, the “percentage of compound remaining (by comparing with content at To), lowest over incubation” value ([1]; room temperature) was “at least 90.5%” and the CLF remaining ([1]; 4° C., 0.0 hours) was 100.0%. The CLF remaining ([1]; 4° C., 0.5 hours) was 95.2%, the CLF remaining ([1]; 4° C., 2.0 hours) was 101.0% and the CLF remaining ([1]; 4° C., 24.0 hours) was 93.5%. It also gave a CLF remaining [1, 4] of 100.0%, a CLF remaining [1, 5] of 97.6% and a CLF remaining [1, 6] of 92.5%. The CLF remaining [1, 7] was 90.5%, the “CLF stability in plasma after pretreatment of whole blood at 37° C.” value ([1]; room temperature and 4° C., up to 24 hours) was “stable during 24 h; also recorded: stable under these conditions” and the CLF immunoreactivity lost ([2]; exposed to light, after 48 hrs) was “long period, with up to 25% of CLF”. The “% difference (light from dark)” value ([2]; expected 31.25 ng/ml) was 0%, the “observed Light” value ([2]; expected 31.25 ng/ml) was 37 ng/mL and the observed dark ([2]; expected 31.25 ng/ml) was 37 ng/mL. The “% difference (light from dark)” value ([2]; expected 125 ng/ml) was −25%, the “observed Light” value ([2]; expected 125 ng/ml) was 107 ng/mL and the observed dark ([2]; expected 125 ng/ml) was 143 ng/mL. The “% difference (light from dark)” value ([2]; expected 500 ng/ml) was −15%, the “observed Light” value ([2]; expected 500 ng/ml) was 423 ng/mL and the observed dark ([2]; expected 500 ng/ml) was 495 ng/mL. The “CLF immunoreactivity lost on exposure to light” value ([2]; spiked serum, 48 hrs, room temperature, fluorescent bulb vs dark) was “up to 25%”, the “quantitative value of CLF prepared in methanol (100%) relative to CLF prepared in aqueous ethanol (higher by)” value ([3]; EtOH:H2O:NaOH (50%) 500:1000:30, both immunoassay and HPLC methodologies) was “approximately 40%” and the “tautomerization of CLF” value ([3]; isomeric form of SS CLF-EtOH not detected in standard samples in human plasma) was “reversible and depends on the pH of the medium; also recorded: reversible and is dependent on the pH of the medium”.
